Here are results for six compounds from US4177277A, “Method for alleviating hypertension” (E. R. Squibb & Sons, Inc., priority 1978, dated 1979).

In brackets after ≈: the same amount, converted by molar mass. Non-standard residues stand in square brackets, D forms with d. Residues, ends and D or L forms follow the SMILES beside them.

The test system of assay [1] is angiotensin I converting enzyme in excised guinea pig ileum. Put plainly: Inhibition of angiotensin I converting enzyme in excised guinea pig ileum (contractile activity of angiotensin I). In kind it is cell-based. To be noted: Cavia porcellus, Krebs solution at 37°, angiotensin I added after two minutes, read-out: IC50 (inhibition of the contractile activity of angiotensin I by 50%). On the procedure:
After two minutes, angiotensin I ([…]) is added and the isotonic contractions are measured.

Assay [2] deals with angiotensin I pressor response. Put plainly: Inhibition of angiotensin I pressor response in unanesthetized rats after oral administration. To be noted: unanesthetized male Sprague-Dawley rats, 0.31 μg/kg angiotensin I, 2 animals. The assay is classed as in vivo, rats of the Sprague-Dawley strain. How it is done: A representative compound of the present invention administered orally at doses of 10 and 100 mg/kg to unanesthetized male rats of the Sprague-Dawley strain weighing about 200 g., followed by an injection of 0.31 μg/kg of angiotensin I, indicates the following degree of inhibition obtained.

Assay [3] deals with T1, angiotensin-converting enzyme of rabbit lung (Oryctolagus cuniculus, UniProt P12822).
T1 construct: isolated angiotensin converting enzyme from rabbit lungs; from tissue; host or cells: rabbit lung
T1 sequence (P12822 34-1310): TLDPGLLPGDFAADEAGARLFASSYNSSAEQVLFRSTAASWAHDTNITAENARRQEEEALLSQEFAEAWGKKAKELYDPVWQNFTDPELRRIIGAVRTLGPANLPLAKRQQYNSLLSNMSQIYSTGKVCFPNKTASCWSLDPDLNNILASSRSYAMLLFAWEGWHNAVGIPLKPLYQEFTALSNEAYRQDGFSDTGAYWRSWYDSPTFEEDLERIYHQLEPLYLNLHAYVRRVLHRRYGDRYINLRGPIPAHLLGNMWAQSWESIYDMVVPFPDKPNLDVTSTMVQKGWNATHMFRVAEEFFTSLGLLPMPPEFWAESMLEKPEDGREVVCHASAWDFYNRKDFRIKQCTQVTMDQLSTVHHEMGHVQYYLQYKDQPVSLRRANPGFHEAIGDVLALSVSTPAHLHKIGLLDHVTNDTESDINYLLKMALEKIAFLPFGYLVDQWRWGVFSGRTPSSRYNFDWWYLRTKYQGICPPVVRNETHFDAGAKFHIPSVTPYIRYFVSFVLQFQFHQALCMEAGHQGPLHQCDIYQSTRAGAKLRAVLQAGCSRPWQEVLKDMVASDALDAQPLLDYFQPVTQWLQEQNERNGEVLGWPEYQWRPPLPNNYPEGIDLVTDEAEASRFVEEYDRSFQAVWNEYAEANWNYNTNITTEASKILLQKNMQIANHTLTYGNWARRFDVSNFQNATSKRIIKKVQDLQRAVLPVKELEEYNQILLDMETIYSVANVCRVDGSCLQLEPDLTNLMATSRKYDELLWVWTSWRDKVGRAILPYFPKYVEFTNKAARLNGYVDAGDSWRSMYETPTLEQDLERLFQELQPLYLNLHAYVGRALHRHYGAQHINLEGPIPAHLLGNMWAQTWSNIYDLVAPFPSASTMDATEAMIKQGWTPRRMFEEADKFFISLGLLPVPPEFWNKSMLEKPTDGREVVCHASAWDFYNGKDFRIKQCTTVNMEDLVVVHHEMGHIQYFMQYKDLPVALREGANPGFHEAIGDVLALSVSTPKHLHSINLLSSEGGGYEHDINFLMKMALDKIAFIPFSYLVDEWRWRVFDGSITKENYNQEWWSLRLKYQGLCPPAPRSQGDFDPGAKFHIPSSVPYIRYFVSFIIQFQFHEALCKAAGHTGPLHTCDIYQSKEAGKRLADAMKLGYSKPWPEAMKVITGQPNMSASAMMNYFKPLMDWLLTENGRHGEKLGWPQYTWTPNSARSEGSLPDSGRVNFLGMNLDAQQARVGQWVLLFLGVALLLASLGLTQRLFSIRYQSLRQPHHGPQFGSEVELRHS
The experiment in a line: Inhibition of isolated angiotensin-converting enzyme of rabbit lung (cleavage of hippuryl-L-histidyl-L-leucine). In kind it is biochemical. To be noted: 5 mM hippuryl-L-histidyl-L-leucine, pH 8.3, 30 minutes at 37° C., read-out: I50 (concentration producing a 50% inhibition of angiotensin-converting enzyme) (converted). From the text: Although conversion of angiotensin I to angiotensin II by angiotensin-converting enzyme is probably the reaction of most importance in the pathology of hypertension, the activity of the isolated enzyme is more conveniently and accurately assayed by measuring its rate of cleavage of a simpler peptide substrate, hippuryl-L-histidyl-L-leucine. […] Controls containing no inhibitor (100% activity), and those acidified before addition of the enzyme (0% activity) are similarly prepared. All of the enzymatic reations are initiated by addition of the enzyme component; tubes are incubated for 30 minutes at 37° C.; and reactions are terminated by addition of 0.25 ml. of 1 N HCl. The hippuric acid formed by action of angiotensin-converting enzyme on hippuryl-L-histidyl-L-leucine is extracted into ethyl acetate, evaporated to dryness, redissolved in water and quantitated from its absorbance at 228 nm. The percent inhibition by each concentration of compound is calculated by comparison with the 0% and 100% activity controls.

The conditions of assay [4]: Fujimura et al. 1964; cited from earlier work.
Assay [5] concerns anesthetized normotensive rats. The note with it: intravenous injection, Schulze 1972; cited from earlier work.
The subject of another assay is normotensive rats. The note with it: Ripa 1970; cited from earlier work.

`N[C@H](CS)C(=O)N1CCC[C@H]1C(=O)O` [D-Cysteinyl-L-proline] (H-[dC]-Pro-OH): the IC50 was 0.05 µg/mL (≈ 0.229 µM) in assay [1] and 596 nM in assay [3]. In addition, the “% maximum inhibition of angiotensin I pressor response” value in assay [2] (10 mg/kg orally) is recorded as 62%; in assay [2] (100 mg/kg orally), 95%.

On to `CC(=O)NC(CS)C(=O)N1CCC[C@H]1C(=O)O` (mixture of isomers) [N-Acetyl-DL-cysteinyl-L-proline], for which the IC50 in assay [1] was 0.6 µg/mL; in assay [3], 1150 nM.

`NCCCC(CS)C(=O)N1CCC[C@H]1C(=O)O` (mixture of isomers) [1-(5-Amino-2-mercaptomethylpentanoyl)-L-proline]: the values for the IC50 in assay [1] and in assay [3] were 0.47 µg/mL (≈ 1.81 µM) and 69.1 nM, respectively.

`CC(S)C(=O)NCC(=O)O` (stereo not shown) [2-mercaptopropionyl-glycine]: the “effects on blood pressure” value in assay [4] is “no noticeable effects on blood pressure”. Further, in assay [5], the “lowering of the blood pressure” value is given as “produced lowering of the blood pressure”. Also, in the assay on normotensive rats, the angiotensinogen entry is recorded as “increases angiotensinogen” and the renin blood levels entry was “lowers renin blood levels”.

`N[C@@H](CS)C(=O)N1CCC[C@H]1C(=O)O` [L-Cysteinyl-L-proline] (H-Cys-Pro-OH): the IC50 in assay [1] was 23 µg/mL (≈ 105 µM); in assay [3], 36700 nM.

In the case of `CC(=O)NC(CSC(C)=O)C(=O)N1CCC[C@H]1C(=O)O` (mixture of isomers) [N,S-Diacetyl-DL-cysteinyl-L-proline], the IC50 in assay [1] was 23 µg/mL; in assay [3], 72800 nM.
